# In US20100184813A1, “CHEMICAL COMPOUNDS 553” (AstraZeneca AB, priority 2008, published 2010):
# Target: T1, human DGAT1 (Homo sapiens, UniProt O75907)
# T1 construct: made in house; host or cells: Sf9 insect cells (baculovirus); membrane fraction
# T1 sequence (O75907 1-488): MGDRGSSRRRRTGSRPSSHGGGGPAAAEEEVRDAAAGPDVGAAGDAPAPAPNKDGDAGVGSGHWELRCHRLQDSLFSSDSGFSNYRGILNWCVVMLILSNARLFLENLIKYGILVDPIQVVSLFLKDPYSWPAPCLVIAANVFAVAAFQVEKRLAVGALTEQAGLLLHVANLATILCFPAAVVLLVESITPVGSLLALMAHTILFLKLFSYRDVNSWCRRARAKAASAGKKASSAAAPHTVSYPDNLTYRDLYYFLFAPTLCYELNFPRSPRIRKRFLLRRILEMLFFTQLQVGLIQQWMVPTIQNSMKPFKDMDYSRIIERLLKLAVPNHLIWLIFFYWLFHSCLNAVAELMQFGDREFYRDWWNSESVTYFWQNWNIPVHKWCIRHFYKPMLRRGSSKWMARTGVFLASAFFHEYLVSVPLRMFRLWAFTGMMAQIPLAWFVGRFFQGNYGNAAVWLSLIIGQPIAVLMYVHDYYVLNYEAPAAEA
# Test: Human Enzyme Assay (DGAT1 inhibition, 14C oleoyl coenzyme A, insect cell membranes)
# Type: biochemical
# Settings: human DGAT1 expressed in sf9 insect cell membranes; usually a mean of 2 measurements
# Experimental: See, for example, International Application WO 2005/044250.
# The in vitro assay to identify DGAT1 inhibitors uses human DGAT1 expressed in insect cell membranes as the enzyme source (Proc. Natl. Acad. Sci. 1998, 95, 13018-13023). Briefly, sf9 cells were infected with recombinant baculovirus containing human DGAT1 coding sequences and harvested after 48 h. Cells were lysed by sonication and membranes isolated by centrifuging at 28000 rpm for 1 h at 4° C. on a 41% sucrose gradient. The membrane fraction at the interphase was collected, washed, and stored in liquid nitrogen.
# DGAT1 activity was assayed by a modification of the method described by Coleman (Methods in Enzymology 1992, 209, 98-102). Compound at 0.0000256 μM-33 μM (final conc.) (typically 10 μM) was incubated with 4 μg/ml (final conc) membrane protein, 5 mM MgCl2, and 100 μM 1,2 dioleoyl-sn-glycerol (dissolved in acetone with a final assay conc. of acetone of 10%) in a total assay volume of 200 μl in a 96 well plate. The reaction was started by adding ^14C oleoyl coenzyme A (30 μM final concentration) and incubated at room temperature for 30 minutes. The reaction was stopped by adding 200 μl 2-propanol:heptane 7:1. Radioactive triolein product was separated into the organic phase by adding 300 μl heptane and 100 μl 0.1 M carbonate buffer pH 9.5. DGAT1 activity was quantified by counting aliquots of the upper heptane layer by liquid scintillography.
# Stated figures are usually a mean of a number of measurements (usually 2 measurements) according to standard practice.
row,IC50 [nM],Structure (SMILES)
1,16,"O=C(Nc1ccc([C@H]2CC[C@H](C(=O)O)CC2)cc1F)c1nnc(Nc2ccc(C(F)(F)F)cc2)o1 [Example 1, (1r,4r)-4-(3-Fluoro-4-(5-(4-(trifluoromethyl)phenylamino)-1,3,4-oxadiazole-2-carboxamido)phenyl)cyclohexanecarboxylic acid]"
2,28,O=C(Nc1ccc([C@H]2CC[C@H](C(=O)O)CC2)cc1F)c1nnc(Nc2ccc(OC(F)F)cc2)o1 [Example 2]
3,11,"O=C(Nc1ccc([C@H]2CC[C@H](C(=O)O)CC2)cc1F)c1nnc(Nc2ccc(OC(F)(F)F)cc2)o1 [Example 3, (1r,4r)-4-(3-Fluoro-4-(5-(4-(trifluoromethoxyl)phenylamino)-1,3,4-oxadiazole-2-carboxamido)phenyl)cyclohexanecarboxylic acid]"
4,12,"O=C(Nc1ccc([C@H]2CC[C@H](C(=O)O)CC2)cc1F)c1nnc(Nc2cccc(Cl)c2)o1 [Example 4, (1r,4r)-4-(4-(5-(3-Chlorophenylamino)-1,3,4-oxadiazole-2-carboxamido)-3-fluorophenyl)cyclohexanecarboxylic acid]"
5,5.5,"O=C(Nc1ccc([C@H]2CC[C@H](C(=O)O)CC2)cc1F)c1nnc(Nc2ccc(F)c(F)c2)o1 [Example 5, (1r,4r)-4-(4-(5-(3,4-Difluorophenylamino)-1,3,4-oxadiazole-2-carboxamido)-3-fluorophenyl)cyclohexanecarboxylic acid]"
6,3.7,"O=C(Nc1ccc([C@H]2CC[C@H](C(=O)O)CC2)cc1F)c1nnc(Nc2cc(F)c(F)cc2F)o1 [Example 6, (1r,4r)-4-(3-Fluoro-4-(5-(2,4,5-trifluorophenylamino)-1,3,4-oxadiazole-2-carboxamido)phenyl)cyclohexanecarboxylic acid]"
7,9.2,"O=C(Nc1ccc([C@H]2CC[C@@H](C(=O)O)CC2)cc1F)c1nnc(Nc2ccc(F)c(F)c2)o1 [Example 7, (1s,4s)-4-(4-(5-(3,4-Difluorophenylamino)-1,3,4-oxadiazole-2-carboxamido)-3-fluorophenyl)cyclohexanecarboxylic acid]"
8,4.7,"O=C(Nc1ccc([C@H]2CC[C@@H](C(=O)O)CC2)cc1F)c1nnc(Nc2cc(F)c(F)cc2F)o1 [Example 8, (1s,4s)-4-(3-Fluoro-4-(5-(2,4,5-trifluorophenylamino)-1,3,4-oxadiazole-2-carboxamido)phenyl)cyclohexanecarboxylic acid]"
